Reference: patent publication US11040029B2, “Methods for the administration of certain VMAT2 inhibitors” (Neurocrine Biosciences, Inc., priority 2017, dated 2021)
Entries after “also recorded” stand apart in the source; their conditions may differ. Like-named read-outs stand apart in the source and are kept apart here.

Tests used:
[1] = test system: dopamine, serotonin and adrenergic receptor subtypes; assay: Detailed radioligand binding assays, monoamine receptors; settings: for interaction with D1 and D2 receptors: radioligand binding assays and broad panel screen
[2] = Metabolic stability in human liver microsomes with/without quinidine; settings: both, human, microsomes, pH 7.4
Procedure: (§1) Incubation volumes were 250 μL for liver microsomes and 100 μL for hepatocytes. The liver microsomal incubation mixtures contained potassium phosphate buffer (50 mM, pH 7.4) with an NADPH-generating system which consisted of NADP (1 mM), glucose-6-phosphate (5 mM), MgCl2 (3 mM), EDTA (1 mM) and glucose-6-phosphate dehydrogenase (1 Unit/mL) at the final concentrations indicated. The hepatocyte incubation was in KHB buffer. Cryopreserved human hepatocytes were thawed according to the supplier's instruction, and pooled from three female donors. […] Aliquots of supernatant fractions were analyzed by an LC/MS/MS method using an Acquity UPLC liquid chromatography system with an Acquity BEH C18, 1.7 μm (2.1×100 mm) column and the MassLynx 4.1 with QuanLynx data acquisition and processing software, each available from Waters Corp., Milford, Mass.
(§2) Dextromethorphan was used as a positive control. Briefly, the concentration-time data were fitted by nonlinear regression with the following equation: Ct/C0=e^−kt where Ct is the substrate concentration at time t and C0 is the initial concentration (1 μM) at time 0. In the calculations, the area ratio of the substrate peak to an internal standard peak is proportional to the analyte concentration and used for regression analysis to get the value of k. Then the in vivo intrinsic clearance (CLint) can be predicted using the equations below with an assumption that C0 is much lower than Km, a constant that is equal to the substrate concentration at which an enzyme reaction proceeds at half the maximum velocity.

CYP2D6 [3] = assay: as above
Procedure: as §1, §2

[4] = Metabolic stability in cryopreserved human hepatocytes with/without quinidine; settings: female, human, hepatocytes
Procedure: as §1, §2

CYP2D6 [5] = assay: as above
Procedure: as §1, §2

[6] = Prolactin release, in vivo surrogate measure
human VMAT1 transporter = molecular target: T1, human VMAT1 transporter (Homo sapiens, UniProt P54219); assay: Uptake in cells expressing VMAT1; assay type: cell-based; settings: concentrations up to 10 μM
T1 construct: expressed in transfected cells
T1 sequence (P54219 1-525): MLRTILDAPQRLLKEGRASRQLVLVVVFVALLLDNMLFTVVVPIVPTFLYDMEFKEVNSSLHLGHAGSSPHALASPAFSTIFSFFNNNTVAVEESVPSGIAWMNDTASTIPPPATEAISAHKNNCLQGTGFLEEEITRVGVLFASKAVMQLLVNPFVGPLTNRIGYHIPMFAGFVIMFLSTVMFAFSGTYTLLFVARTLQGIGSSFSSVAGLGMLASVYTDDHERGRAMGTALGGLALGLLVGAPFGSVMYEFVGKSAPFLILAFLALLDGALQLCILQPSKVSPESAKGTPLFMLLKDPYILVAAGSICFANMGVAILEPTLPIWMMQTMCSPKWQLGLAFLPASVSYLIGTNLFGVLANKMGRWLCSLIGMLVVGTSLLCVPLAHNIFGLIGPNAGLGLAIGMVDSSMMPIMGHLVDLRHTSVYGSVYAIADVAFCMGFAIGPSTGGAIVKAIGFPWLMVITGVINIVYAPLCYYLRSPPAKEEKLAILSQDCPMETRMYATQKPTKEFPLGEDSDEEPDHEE

[7] = in vivo; cited from earlier work
[8] = test system: more than 80 targets (GPCRs, cell-surface monoamine transporters, ion channels including HERG); assay: Cerep multi-target activity screen; assay type: binding; settings: broad panel screen
[9] = Plasma concentrations of circulating metabolites of VBZ; assay type: in vivo; settings: after VBZ
CYP2D6 [10] = settings: female, human, hepatocytes, 1 μM
Procedure: as §1, §2

[11] = test system: CYP2D6, CYP1A1, CYP1A2, CYP1B1, CYP3A4 and CYP3A5; settings: 1 μM, pH 7.4
in vitro [12] = settings: both, human, microsomes, pH 7.4
Procedure: as §1, §2

CYP2D6 [13] = assay: in vitro; settings: both, human, microsomes, pH 7.4
Procedure: as §1, §2

CYP2D6 [14] = settings: both, human, microsomes, 1 μM, pH 7.4
Procedure: as §1, §2

[15] = Phase 3 clinical trial in tardive dyskinesia, plasma concentrations; assay type: in vivo, human; settings: valbenazine 40 or 80 mg once daily, Weeks 2, 4, 6
Procedure: A Phase 3 clinical trial for patients with tardive dyskinesia (TD) and a psychiatric diagnosis (i.e., schizophrenia/schizoaffective disorder, mood disorder) who received once-daily valbenazine 40 or 80 mg for 6 weeks was also conducted.
Plasma samples for determination of plasma valbenazine and [+]-α-HTBZ concentrations were obtained at Weeks 2, 4, and 6. Plasma valbenazine and [+]-α-HTBZ concentrations were determined using validated HPLC-MS/MS methods. PK parameters were determined using standard non-compartmental methods. Dose-normalized plasma concentrations of valbenazine and [+]-α-HTBZ at Weeks 2, 4, and 6 in the subgroup of patients prescribed concomitant potent CYP2D6 inhibitors (paroxetine, fluoxetine, duloxetine, sertraline, or bupropion) were compared by t-test to respective concentrations in patients not receiving a CYP2D6 inhibitor.

[16] = Healthy volunteer studies, coadministration of NBI-98854 with strong CYP2D6 inhibitors; assay type: in vivo, human; settings: NBI-98854 coadministered with strong CYP2D6 inhibitors; preliminary data
in vitro [17] = settings: female, human, hepatocytes
Procedure: as §1, §2

CYP2D6 [18] = assay: in vitro; settings: female, human, hepatocytes
Procedure: as §1, §2

[19] = with concomitant CYP2D6 inhibitors
[20] = without concomitant CYP2D6 inhibitors

COc1cc2c(cc1OC)[C@@H]1C[C@@H](O)[C@@H](CC(C)C)CN1CC2 [R,S,S-DHTBZ]
interaction with D1 and D2 receptors [1]: interact with D1 and D2 receptors

COc1ccc2c(c1)[C@]13CCCC[C@@H]1[C@H](C2)N(C)CC3 [Dextromethorphan]
CLint scaled at 1 μM [2]: 50 mL/min/kg | CLint scaled at 1 μM (CYP2D6 [3]; both, human, microsomes, pH 7.4): 8 mL/min/kg | % Contribution by CYP2D6 (CYP2D6 [3]; human liver microsomes): 84.0% | inhibition of intrinsic clearance in the presence of quinidine (CYP2D6 [3]; quinidine 3 μM, text summary for microsomes and hepatocytes): more than 80% | CLint scaled at 1 μM [4]: 22.6 mL/min/kg | CLint scaled at 1 μM (CYP2D6 [5]; female, human, hepatocytes): 3.23 mL/min/kg | % Contribution by CYP2D6 (CYP2D6 [5]; human hepatocytes): 85.8%

COc1cc2c(cc1OC)C1CC(=O)C(CC(C)C)CN1CC2 (stereo not drawn) [TBZ, tetrabenazine, reference compound]
increase in serum prolactin levels [6]: increase in serum prolactin levels | inhibition of uptake through VMAT1 (human VMAT1 transporter): no significant inhibitory activity; also recorded: no significant effect

α-dihydrotetrabenazine
increase of AUC [7]: ~3 fold | increase of Cmax [7]: approximately 30%

COc1cc2c(cc1OC)[C@H]1C[C@@H](OC(=O)[C@@H](N)C(C)(C)O)[C@H](CC(C)C)CN1CC2 [NBI-136110]
affinity for more than 80 binding sites [8]: little to no affinity | decline of plasma concentrations, half-life [9]: half-lives similar to VBZ | inhibition of uptake through VMAT1 (human VMAT1 transporter): no significant inhibitory activity; also recorded: no significant effect

COC(=O)[C@H]1[C@H]2C[C@@H]3c4[nH]c5cc(OC)ccc5c4CCN3C[C@H]2C[C@@H](OC(=O)c2cc(OC)c(OC)c(OC)c2)[C@@H]1OC [reserpine, reference compound]
inhibition of uptake through VMAT1 (human VMAT1 transporter): substantially inhibited uptake through VMAT1

COc1cc2c(cc1OC)[C@@H]1C[C@H](O)[C@@H](CC(C)C)CN1CC2 [S,S,S-DHTBZ]
interaction with D1 and D2 receptors [1]: interact with D1 and D2 receptors

COc1cc2c(cc1OC)[C@H]1C[C@@H](O)[C@H](CC(C)C)CN1CC2 [R,R,R-DHTBZ, (2R,3R,11bR)-3-isobutyl-9,10-dimethoxy-1,3,4,6,7,11b-hexahydro-2H-pyrido[2,1-a]isoquinolin-2-ol]
% Contribution by CYP2D6 (CYP2D6 [10]): 54.3% | affinity for more than 80 binding sites [8]: little to no affinity | enzymes catalyzing oxidative metabolism in human liver [11]: in part catalyzed by CYP2D6, with some contribution from CYP1A1, CYP1A2, CYP1B1, CYP3A4 and CYP3A5 | CLint scaled at 1 μM (in vitro [12]): 10.4 mL/min/kg | CLint scaled at 1 μM (CYP2D6 [13]): 3.9 mL/min/kg | % Contribution by CYP2D6 (CYP2D6 [14]): 62.6% | specificity for VMAT2 versus monoamine receptor subtypes [1]: high specificity | decline of plasma concentrations, half-life [9]: half-lives similar to VBZ | Mean (±SD) dose-normalized plasma concentration [15, 19]: 0.534 ± 0.321 ng/mL/mg | Mean (±SD) dose-normalized plasma concentration [15, 20]: 0.513 ± 0.326 ng/mL/mg | increase of area under the plasma concentration versus time curve (AUC) [16]: approximately 2 fold | increase of maximum plasma concentration (Cmax) [16]: approximately 2 fold | inhibition of uptake through VMAT1 (human VMAT1 transporter): no significant inhibitory activity; also recorded: no significant effect | CLint scaled at 1 μM (in vitro [17]): 8.8 mL/min/kg | CLint scaled at 1 μM (CYP2D6 [18]): 4 mL/min/kg

COc1cc2c(cc1OC)[C@H]1C[C@@H](OC(=O)[C@@H](N)C(C)C)[C@H](CC(C)C)CN1CC2 [Valbenazine, (S)-2-amino-3-methyl-butyric acid (2R,3R,11bR)-3-isobutyl-9,10-dimethoxy-1,3,4,6,7,11b-hexahydro-2H-pyrido[2,1-a]isoquinolin-2-yl ester]
affinity for more than 80 binding sites [8]: little to no affinity | Mean (±SD) dose-normalized plasma concentration [15, 19]: 3.375 ± 2.037 ng/mL/mg | Mean (±SD) dose-normalized plasma concentration [15, 20]: 3.683 ± 2.360 ng/mL/mg | inhibition of uptake through VMAT1 (human VMAT1 transporter; listed as VBZ): no significant inhibitory activity; also recorded: no significant effect
